Experimental data: patent publication US6492416B1, “4,5-diaryl-3(2H)-furanone derivatives as cyclooxygenase-2 inhibitors” (Pacific Corporation, priority 1999, dated 2002)
≈ marks a conversion by molar mass, not a printed value.

Columns and labels:
COX-2 = target: T1, COX-2 (Mus musculus, UniProt Q05769); assay: Evaluation of COX-2 activity: PGE2 formation in aspirin-treated, LPS-stimulated mouse peritoneal macrophages; format: cell-based; settings: for IC50: read-out: IC50, μg/ml COX-2 (converted)
T1 sequence (Q05769 18-604): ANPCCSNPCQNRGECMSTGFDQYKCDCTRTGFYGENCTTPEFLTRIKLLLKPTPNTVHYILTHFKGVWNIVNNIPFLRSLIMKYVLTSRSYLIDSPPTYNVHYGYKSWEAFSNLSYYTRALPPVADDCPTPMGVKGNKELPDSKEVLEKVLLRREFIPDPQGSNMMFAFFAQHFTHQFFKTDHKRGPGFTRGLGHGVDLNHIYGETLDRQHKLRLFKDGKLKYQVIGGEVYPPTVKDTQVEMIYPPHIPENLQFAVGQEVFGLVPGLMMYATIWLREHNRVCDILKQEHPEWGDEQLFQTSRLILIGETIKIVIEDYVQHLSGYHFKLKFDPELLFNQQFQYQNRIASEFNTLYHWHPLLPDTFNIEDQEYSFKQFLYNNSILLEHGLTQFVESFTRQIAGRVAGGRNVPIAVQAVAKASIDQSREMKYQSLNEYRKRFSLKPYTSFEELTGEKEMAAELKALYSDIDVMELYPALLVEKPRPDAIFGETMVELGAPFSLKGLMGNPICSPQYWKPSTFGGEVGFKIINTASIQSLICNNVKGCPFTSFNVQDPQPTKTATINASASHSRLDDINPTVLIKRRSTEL
Method: (§1) Evaluation of in vitro COX-2 and COX-1 Activity [J. Pharmacol. Exp. Ther. 166, 96 (1969)]
(§2) The abdominal skin of a C57BL/6 mouse was sanitized with 70% aqueous ethanol, and was removed without damaging the peritoneum. 5 ml of cold phosphate buffer solution (PBS) was then injected into the abdominal cavity. After a minute, the peritoneal fluid containing the macrophages was collected using a syringe and a needle. The collected fluid was centrifuged for 5 min at 1500 rpm to afford pellets of cells. The pellets were then dispersed in the RPMI-1640 culture medium containing 100 units/ml penicillin and 100 μg/ml streptomycin.
The pellets dispersed as above were treated with 500 μM aspirin in order to knock out the activity of the COX-1 enzymes in the cells. The suspension was then diluted with the RPMI-1640 medium to contain 1×10^6 cells/ml. 100 μl of the suspension was added to each well of a 96-well ELISA plate. Then the plate was incubated for 2 hrs at 37° C. under 5% CO2 in order to fix the macrophages onto the plate. The cells, which were not fixed onto the plate were removed by washing with PBS two times. […] The RPMI-1640 medium containing 3% fetal bovine serum albumin was added to each well of the plate, which was followed by stimulation with 10 μg/ml lipopolysaccharide (LPS). […] The LPS-treated suspensions were incubated for 16 hours at 37° C. under 5% CO2 to induce COX-2. Then the culture medium was removed and the macrophages were washed two times with PBS. Then 130 μl RPMI-1640 culture medium was added to each well and the macrophage solutions were incubated at 37° C. for 10 minutes, which was followed by the treatment with 10 μM arachidonic acid and an appropriate amount of compounds of this invention. The plate was incubated for another 10 minutes. The upper solution was collected using a micropipette and was subjected to determination of PGE2 amount in the solution. The amount of PGE2 present in the collected solution was determined either by a known radio-immuno assay or by a known enzyme-immunoassay [Methods in Enzymol. 86, 258 (1982); Methods in Enzymol. 187, 24 (1990)]. The extent of COX-2 inhibition by a compound of the present invention was calculated by assuming, that the amount of PGE2 formed with the treatment of 10 μg/ml arachidonic acid was used is the maximum possible amount of PGE2, and that the amount of PGE2 formed without the treatment of arachidonic acid is the minimum possible amount of PGE2.
(§3) In order to determine IC50 for a compound of this invention, enzymatic activities were measured at multiple concentrations of compounds of this invention around IC50 of the compound. Usually enzymatic activities at 4˜5 concentrations were measured to calculate out IC50 for a compound of this invention.

COX-1 = target: T2, COX-1 (Mus musculus, UniProt P22437); assay: Evaluation of COX-1 activity: PGE2 formation in mouse peritoneal macrophages without aspirin and LPS treatment; format: cell-based; settings: for IC50: read-out: IC50, μg/ml COX-1 (converted)
T2 sequence (P22437 27-602): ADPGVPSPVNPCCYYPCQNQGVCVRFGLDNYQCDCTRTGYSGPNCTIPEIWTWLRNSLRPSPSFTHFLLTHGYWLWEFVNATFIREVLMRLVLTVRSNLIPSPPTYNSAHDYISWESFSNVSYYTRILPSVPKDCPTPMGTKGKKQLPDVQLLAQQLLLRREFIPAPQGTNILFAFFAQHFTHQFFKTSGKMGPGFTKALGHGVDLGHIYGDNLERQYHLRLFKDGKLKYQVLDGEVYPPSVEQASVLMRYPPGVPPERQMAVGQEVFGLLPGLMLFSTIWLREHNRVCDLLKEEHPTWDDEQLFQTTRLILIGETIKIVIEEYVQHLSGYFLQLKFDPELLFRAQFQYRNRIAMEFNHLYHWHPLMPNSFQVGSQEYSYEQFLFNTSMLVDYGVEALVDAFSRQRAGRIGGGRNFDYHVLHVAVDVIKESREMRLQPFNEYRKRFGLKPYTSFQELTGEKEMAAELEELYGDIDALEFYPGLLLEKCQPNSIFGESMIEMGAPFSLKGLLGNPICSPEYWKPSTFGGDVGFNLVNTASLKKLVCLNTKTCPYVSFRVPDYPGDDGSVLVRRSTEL
Method: as §1, §2
The pellets dispersed as above were treated with 500 μM aspirin in order to knock out the activity of the COX-1 enzymes in the cells. The suspension was then diluted with the RPMI-1640 medium to contain 1×10^6 cells/ml. 100 μl of the suspension was added to each well of a 96-well ELISA plate. Then the plate was incubated for 2 hrs at 37° C. under 5% CO2 in order to fix the macrophages onto the plate. The cells, which were not fixed onto the plate were removed by washing with PBS two times. The purity of macrophages obtained thereby was confirmed by differential counting. The RPMI-1640 medium containing 3% fetal bovine serum albumin was added to each well of the plate, which was followed by stimulation with 10 μg/ml lipopolysaccharide (LPS). Usually 5×10^5 cells/ml were present by this preparation. The LPS-treated suspensions were incubated for 16 hours at 37° C. under 5% CO2 to induce COX-2. Then the culture medium was removed and the macrophages were washed two times with PBS. Then 130 μl RPMI-1640 culture medium was added to each well and the macrophage solutions were incubated at 37° C. for 10 minutes, which was followed by the treatment with 10 μM arachidonic acid and an appropriate amount of compounds of this invention. The plate was incubated for another 10 minutes. The upper solution was collected using a micropipette and was subjected to determination of PGE2 amount in the solution. The amount of PGE2 present in the collected solution was determined either by a known radio-immuno assay or by a known enzyme-immunoassay [Methods in Enzymol. 86, 258 (1982); Methods in Enzymol. 187, 24 (1990)]. The extent of COX-2 inhibition by a compound of the present invention was calculated by assuming, that the amount of PGE2 formed with the treatment of 10 μg/ml arachidonic acid was used is the maximum possible amount of PGE2, and that the amount of PGE2 formed without the treatment of arachidonic acid is the minimum possible amount of PGE2.
In the evaluation of COX-1 inhibitory activity by a compound of the present invention, the same procedures employed for evaluation of COX-2 activity were employed, except omitting the following two steps: 1) the treatment with aspirin for knockout of COX-1 activity and 2) treatment with LPS for induction of COX-2.
as §3

| Structure (SMILES) | IC50, μg/ml COX-2 (COX-2) | melting point | IC50, μg/ml COX-1 (COX-1) | IC50 (COX-2) | IC50 (COX-1) |
| --- | --- | --- | --- | --- | --- |
| CCCCc1ccc(C2=C(c3ccc(S(C)(=O)=O)cc3)OC(C)(C)C2=O)cc1 [Example 97] | 0.002 µg/mL (≈ 0.00502 µM) | 84 to 85 °C | 5 µg/mL (≈ 12.5 µM) |  |  |
| CC1(C)OC(c2ccc(S(C)(=O)=O)cc2)=C(c2cc(F)ccc2F)C1=O [Example 103] | 0.03 µg/mL (≈ 0.0793 µM) | 141 to 142 °C | 20 µg/mL (≈ 52.9 µM) |  |  |
| CC1(C)OC(c2ccc(S(C)(=O)=O)cc2)=C(c2ccc(O)cc2)C1=O [Example 104, 2,2-Dimethyl-4-(4-hydroxyphenyl)-5-{4-(methylsulfonyl)phenyl}-3(2H)-furanone] | 0.3 µg/mL (≈ 0.837 µM) | 150 to 152 °C | 100 µg/mL (≈ 279 µM) |  |  |
| CC1(C)OC(c2ccc(S(C)(=O)=O)cc2)=C(c2ccccc2O)C1=O [Example 105] | 0.03 µg/mL (≈ 0.0837 µM) | 182 to 183 °C | 50 µg/mL (≈ 140 µM) |  |  |
| CC1(C)OC(c2ccc(S(C)(=O)=O)cc2)=C(c2ccc(C=O)s2)C1=O [Example 121] | 0.2 µg/mL (≈ 0.531 µM) | 168 to 170 °C | 30 µg/mL (≈ 79.7 µM) |  |  |
| Cc1ccc(C2=C(c3ccc(S(C)(=O)=O)cc3)OC(C)(C)C2=O)s1 [Example 122] | 0.03 µg/mL (≈ 0.0828 µM) | 141 to 142 °C | 3 µg/mL (≈ 8.28 µM) |  |  |
| CC1(C)OC(c2ccc(S(N)(=O)=O)cc2)=C(c2ccc(Cl)c(Cl)c2)C1=O [Example 127] | 0.001 µg/mL (≈ 0.00243 µM) | 208 to 209 °C | 0.12 µg/mL (≈ 0.291 µM) |  |  |
| COc1cccc(C2=C(c3ccc(S(N)(=O)=O)cc3)OC(C)(C)C2=O)c1 [Example 135] | 0.055 µg/mL (≈ 0.147 µM) | 259 to 260 °C | >10 µg/mL |  |  |
| CC1(C)OC(c2ccc(S(N)(=O)=O)cc2)=C(c2ccc(F)c(F)c2)C1=O [Example 138] | 0.0067 µg/mL (≈ 0.0177 µM) | 210 to 211 °C | 1.94 µg/mL (≈ 5.11 µM) |  |  |
| CC1(C)OC(c2ccc(S(N)(=O)=O)cc2)=C(c2cc(Cl)cc(Cl)c2)C1=O [Example 149] | 0.0087 µg/mL (≈ 0.0211 µM) | 209 to 210 °C | 1.01 µg/mL (≈ 2.45 µM) |  |  |
| CC1(C)OC(c2ccc(S(N)(=O)=O)cc2)=C(c2ccc(O)cc2)C1=O [Example 151] | 0.0188 µg/mL (≈ 0.0523 µM) | 164 to 165 °C | >10 µg/mL |  |  |
| CC1(C)OC(c2ccc(S(N)(=O)=O)cc2)=C(c2ccco2)C1=O [Example 160] | 0.057 µg/mL (≈ 0.171 µM) | 156 to 157 °C | >10 µg/mL |  |  |
| CSc1ccc(C2=C(c3ccccc3)C(=O)C(C)(C)O2)cc1 [Example 167] | 3 µg/mL (≈ 9.66 µM) | 109 to 110 °C | 50 µg/mL (≈ 161 µM) |  |  |
| CCC1(C)OC(c2ccc(S(C)(=O)=O)cc2)=C(c2ccccc2F)C1=O (stereo not drawn) [Example 188] |  | 108 to 109 °C |  | 801 nM | 80.1 µM |
| CCC1(C)OC(c2ccc(S(C)(=O)=O)cc2)=C(c2cccc(C)c2)C1=O (stereo not drawn) [Example 193] |  | 48 to 49 °C |  | 81 nM | 8.1 µM |
| CCC1(C)OC(c2ccc(S(C)(=O)=O)cc2)=C(c2cccc(C(F)(F)F)c2)C1=O (stereo not drawn) [Example 194] |  | 45 to 46 °C |  | 118 nM | 47.1 µM |
| CCC1(C)OC(c2ccc(S(C)(=O)=O)cc2)=C(c2ccc(Cl)c(C(F)(F)F)c2)C1=O (stereo not drawn) [Example 198] |  | 168 to 170 °C |  | 65.4 nM | 6.54 µM |
| CCC1(C)OC(c2ccc(S(C)(=O)=O)cc2)=C(c2ccc(OC)c(F)c2)C1=O (stereo not drawn) [Example 214] |  | 158 to 160 °C |  | 74.2 nM | 7.42 µM |
| CCC1(C)OC(c2ccc(S(N)(=O)=O)cc2)=C(c2cccc(OC)c2)C1=O (stereo not drawn) [Example 236] | 0.0097 µg/mL (≈ 0.025 µM) | 69 to 70 °C | 10.7 µg/mL (≈ 27.6 µM) |  |  |
